Measurements as given in patent US20230265116A1, “DEGRADATION OF (EGFR) BY CONJUGATION OF EGFR INHIBITORS WITH E3 LIGASE LIGAND AND METHODS OF USE” (BEIGENE, LTD., priority 2020, published 2023).
Where two headings read alike, the source gives them in different places.

Experiments:
[1] = molecular target: T1, EGFR L858R/T790M/C797S (BaF3-LTC cells) (Homo sapiens, UniProt P00533, C797S/L858R/T790M); assay: EGFR degradation HTRF assay, BaF3-LTC cells; assay type: cell-based
T1 construct: expressed in transfected cells; host or cells: BaF3
How it was run: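 Cells treated 16 h at 37 °C, 5% CO2 in medium with 0.2% DMSO; top final concentration 10 uM, 5-fold dilution, 8 doses. Lysates read by HTRF (665/620 nm); degradation % versus DMSO high control, DC50 from four-parameter fit, Dmax as maximal degradation.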

[2] = test system: EGFR Del19/T790M/C797S (H1975-clone #28); assay: EGFR degradation HTRF assay, H1975-clone #28 DTC cells; assay type: cell-based
How it was run: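 Read-out is an HTRF EGFR signal (337 nm excitation, 665/620 nm) from lysates of mutant-EGFR H1975 clones in which only the exogenous EGFR survives knockout. Treatment ran 16h at 37° C. from 10 uM final downward in 5-fold steps. DC50 comes from a logistic fit and Dmax is the maximal degradation.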

[3] = BaF3-LTC cells; EGFR degradation, IC50 (DC50) from curve fit; read-out: DC50(nM) BaF3-LTC
[4] = BaF3-LTC cells; maximum percentage of inhibition (degradation); read-out: Dmax (%) BaF3-LTC
[5] = H1975 # 28 DTC cells; EGFR degradation, IC50 (DC50) from curve fit; read-out: DC50(nM) H1975 # 28 DTC
[6] = H1975 # 28 DTC cells; maximum percentage of inhibition (degradation)

T1 sequence (P00533 25-1210 T790M/C797S/L858R): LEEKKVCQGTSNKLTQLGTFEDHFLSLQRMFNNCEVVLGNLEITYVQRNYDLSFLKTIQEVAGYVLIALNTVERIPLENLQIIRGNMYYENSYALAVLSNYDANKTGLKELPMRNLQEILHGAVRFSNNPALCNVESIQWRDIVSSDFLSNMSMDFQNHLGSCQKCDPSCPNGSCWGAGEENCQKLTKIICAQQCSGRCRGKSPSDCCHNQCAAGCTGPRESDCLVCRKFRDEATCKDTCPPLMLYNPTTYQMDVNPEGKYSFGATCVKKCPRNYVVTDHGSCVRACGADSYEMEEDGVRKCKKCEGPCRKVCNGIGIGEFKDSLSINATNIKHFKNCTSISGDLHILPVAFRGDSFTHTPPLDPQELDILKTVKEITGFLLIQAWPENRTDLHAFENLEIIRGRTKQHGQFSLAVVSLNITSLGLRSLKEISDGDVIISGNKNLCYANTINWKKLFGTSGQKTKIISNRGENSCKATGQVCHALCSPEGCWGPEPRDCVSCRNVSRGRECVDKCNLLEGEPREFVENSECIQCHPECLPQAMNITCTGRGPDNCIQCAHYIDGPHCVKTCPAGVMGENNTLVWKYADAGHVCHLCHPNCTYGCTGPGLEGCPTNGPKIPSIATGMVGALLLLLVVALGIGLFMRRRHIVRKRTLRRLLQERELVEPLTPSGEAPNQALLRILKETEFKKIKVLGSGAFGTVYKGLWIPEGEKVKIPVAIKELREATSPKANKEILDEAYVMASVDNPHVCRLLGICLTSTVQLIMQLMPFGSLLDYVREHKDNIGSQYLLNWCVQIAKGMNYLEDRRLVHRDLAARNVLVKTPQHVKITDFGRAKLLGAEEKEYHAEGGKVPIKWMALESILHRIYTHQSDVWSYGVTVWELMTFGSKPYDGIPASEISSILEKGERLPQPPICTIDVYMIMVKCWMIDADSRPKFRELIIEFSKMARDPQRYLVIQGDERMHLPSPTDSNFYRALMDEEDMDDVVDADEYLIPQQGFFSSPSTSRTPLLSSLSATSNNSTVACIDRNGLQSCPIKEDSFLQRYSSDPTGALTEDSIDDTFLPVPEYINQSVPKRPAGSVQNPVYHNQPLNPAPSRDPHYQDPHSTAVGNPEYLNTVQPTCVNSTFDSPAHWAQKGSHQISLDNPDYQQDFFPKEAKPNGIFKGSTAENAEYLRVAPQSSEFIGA

DC50 [1, 3] [nM]	Dmax [1, 4] [%]	DC50 [2, 5] [nM]	Compound	Dmax (%) H1975 # 28 DTC [2, 6] [%]	DC50 ([1]; read-out: DC50(nM) BaF3-LTC; BaF3-LTC cells; EGFR degradation, IC50 (DC50) from curve fit) [nM]	Dmax ([1]; read-out: Dmax (%) BaF3-LTC, BaF3-LTC cells; maximum percentage of inhibition (degradation)) [%]	DC50 ([2]; read-out: DC50(nM) H1975 # 28 DTC; H1975 # 28 DTC cells; EGFR degradation, IC50 (DC50) from curve fit) [nM]
15	93.9	1.61	CCOc1cc(N2CCC(N3CCN(CC4CCN(c5cc(F)cc6c5oc(=O)n6C5CCC(=O)NC5=O)CC4)CC3)CC2)c(CC)cc1Nc1ncc(Br)c(Nc2ccc3nc(CC)ccc3c2P(C)(C)=O)n1 (stereo not shown) [Example 621, 3-(7-(4-((4-(1-(4-((5-bromo-4-((5-(dimethylphosphoryl)-2-ethylquinolin-6-yl)amino)pyrimidin-2-yl)amino)-5-ethoxy-2-ethylphenyl)piperidin-4-yl)piperazin-1-yl)methyl)piperidin-1-yl)-5-fluoro-2-oxobenzo[d]oxazol-3(2H)-yl)piperidine-2,6-dione]	77.44			
37.3	94	4.78	CCOc1cc(N2CCC(N3CCN(CC4CN(c5cccc6c5n(C)c(=O)n6C5CCC(=O)NC5=O)C4)CC3)CC2)c(CC)cc1Nc1ncc(Br)c(Nc2ccc3c(=O)n(CC)ncc3c2P(C)(C)=O)n1 (stereo not shown) [Example 622, 3-(4-(3-((4-(1-(4-((5-bromo-4-((5-(dimethylphosphoryl)-2-ethyl-1-oxo-1,2-dihydrophthalazin-6-yl)amino)pyrimidin-2-yl)amino)-5-ethoxy-2-ethylphenyl)piperidin-4-yl)piperazin-1-yl)methyl)azetidin-1-yl)-3-methyl-2-oxo-2,3-dihydro-1H-benzo[d]imidazol-1-yl)piperidine-2,6-dione]	75.46			
17.1	92	1.31	CCOc1cc(N2CCC(N3CCN(C[C@@H]4CCN(c5cccc6c5oc(=O)n6C5CCC(=O)NC5=O)C4)CC3)CC2)c(CC)cc1Nc1ncc(Br)c(Nc2ccc3c(=O)n(CC)ncc3c2P(C)(C)=O)n1 (stereo partly drawn) [Example 623, 3-(7-((S)-3-((4-(1-(4-((5-bromo-4-((5-(dimethylphosphoryl)-2-ethyl-1-oxo-1,2-dihydrophthalazin-6-yl)amino)pyrimidin-2-yl)amino)-5-ethoxy-2-ethylphenyl)piperidin-4-yl)piperazin-1-yl)methyl)pyrrolidin-1-yl)-2-oxobenzo[d]oxazol-3(2H)-yl)piperidine-2,6-dione]	75.76			
21.9	95.4	1.05	CCOc1cc(N2CCC(N3CCN(CCc4ccc5c(oc(=O)n5C5CCC(=O)NC5=O)c4Cl)CC3)CC2)c(CC)cc1Nc1ncc(Br)c(Nc2ccc3nc(CC)ccc3c2P(C)(C)=O)n1 (stereo not shown) [Example 624, 3-(6-(2-(4-(1-(4-((5-bromo-4-((5-(dimethylphosphoryl)-2-ethylquinolin-6-yl)amino)pyrimidin-2-yl)amino)-5-ethoxy-2-ethylphenyl)piperidin-4-yl)piperazin-1-yl)ethyl)-7-chloro-2-oxobenzo[d]oxazol-3(2H)-yl)piperidine-2,6-dione]	73.81			
			CCOc1cc(N2CCC(N3CCN(C(=O)CCC4CN(c5cccc6c5oc(=O)n6C5CCC(=O)NC5=O)C4)CC3)CC2)c(CC)cc1Nc1ncc(Br)c(Nc2ccc3nc(CC)ccc3c2P(C)(C)=O)n1 (stereo not shown) [Example 625, 3-(7-(3-(3-(4-(1-(4-((5-bromo-4-((5-(dimethylphosphoryl)-2-ethylquinolin-6-yl)amino)pyrimidin-2-yl)amino)-5-ethoxy-2-ethylphenyl)piperidin-4-yl)piperazin-1-yl)-3-oxopropyl)azetidin-1-yl)-2-oxobenzo[d]oxazol-3(2H)-yl)piperidine-2,6-dione]	80.1	11	88.8	1.86
5.43	91	0.711	CCOc1cc(N2CCC(N3CCN(CCc4cc5oc(=O)n(C6CCC(=O)NC6=O)c5cc4Cl)CC3)CC2)c(CC)cc1Nc1ncc(Br)c(Nc2ccc3c(=O)n(CC)ncc3c2P(C)(C)=O)n1 (stereo not shown) [Example 626, 3-(6-(2-(4-(1-(4-((5-bromo-4-((5-(dimethylphosphoryl)-2-ethyl-1-oxo-1,2-dihydrophthalazin-6-yl)amino)pyrimidin-2-yl)amino)-5-ethoxy-2-ethylphenyl)piperidin-4-yl)piperazin-1-yl)ethyl)-5-chloro-2-oxobenzo[d]oxazol-3(2H)-yl)piperidine-2,6-dione]	76.73			
9.13	94.5	1.23	CCOc1cc(N2CCC(N3CCN(CCc4cc5oc(=O)n(C6CCC(=O)NC6=O)c5cc4Cl)CC3)CC2)c(CC)cc1Nc1ncc(Br)c(Nc2ccc3nc(CC)ccc3c2P(C)(C)=O)n1 (stereo not shown) [Example 627, 3-(6-(2-(4-(1-(4-((5-bromo-4-((5-(dimethylphosphoryl)-2-ethylquinolin-6-yl)amino)pyrimidin-2-yl)amino)-5-ethoxy-2-ethylphenyl)piperidin-4-yl)piperazin-1-yl)ethyl)-5-chloro-2-oxobenzo[d]oxazol-3(2H)-yl)piperidine-2,6-dione]	76.26			
3.24	92.3	0.715	CCOc1cc(N2CCC(N3CCN(CCc4cc5oc(=O)n(C6CCC(=O)NC6=O)c5cc4F)CC3)CC2)c(CC)cc1Nc1ncc(Br)c(Nc2ccc3c(=O)n(CC)ncc3c2P(C)(C)=O)n1 (stereo not shown) [Example 628, 3-(6-(2-(4-(1-(4-((5-bromo-4-((5-(dimethylphosphoryl)-2-ethyl-1-oxo-1,2-dihydrophthalazin-6-yl)amino)pyrimidin-2-yl)amino)-5-ethoxy-2-ethylphenyl)piperidin-4-yl)piperazin-1-yl)ethyl)-5-fluoro-2-oxobenzo[d]oxazol-3(2H)-yl)piperidine-2,6-dione]	76.12			
7.66	89.5	0.965	CCOc1cc(N2CCC(N3CCN(CCc4c(F)cc5c(oc(=O)n5C5CCC(=O)NC5=O)c4F)CC3)CC2)c(CC)cc1Nc1ncc(Br)c(Nc2ccc3c(=O)n(CC)ncc3c2P(C)(C)=O)n1 (stereo not shown) [Example 629, 3-(6-(2-(4-(1-(4-((5-bromo-4-((5-(dimethylphosphoryl)-2-ethyl-1-oxo-1,2-dihydrophthalazin-6-yl)amino)pyrimidin-2-yl)amino)-5-ethoxy-2-ethylphenyl)piperidin-4-yl)piperazin-1-yl)ethyl)-5,7-difluoro-2-oxobenzo[d]oxazol-3(2H)-yl)piperidine-2,6-dione]	71.58			
8.65	91	1.14	CCOc1cc(N2CCC(N3CCN(CCCc4cccc5c4oc(=O)n5C4CCC(=O)NC4=O)CC3)CC2)c(CC)cc1Nc1ncc(Br)c(Nc2ccc3nc(CC)ccc3c2P(C)(C)=O)n1 (stereo not shown) [Example 630, 3-(7-(3-(4-(1-(4-((5-bromo-4-((5-(dimethylphosphoryl)-2-ethylquinolin-6-yl)amino)pyrimidin-2-yl)amino)-5-ethoxy-2-ethylphenyl)piperidin-4-yl)piperazin-1-yl)propyl)-2-oxobenzo[d]oxazol-3(2H)-yl)piperidine-2,6-dione]	72.34			
9.33	86.8	1.04	CCc1ccc2c(P(C)(C)=O)c(Nc3nc(Nc4cc(C5CC5)c(N5CCC(N6CCN(CCc7cccc8c7oc(=O)n8C7CCC(=O)NC7=O)CC6)CC5)cc4OC)ncc3Br)ccc2n1 (stereo not shown) [Example 631, 3-(7-(2-(4-(1-(4-((5-bromo-4-((5-(dimethylphosphoryl)-2-ethylquinolin-6-yl)amino)pyrimidin-2-yl)amino)-2-cyclopropyl-5-methoxyphenyl)piperidin-4-yl)piperazin-1-yl)ethyl)-2-oxobenzo[d]oxazol-3(2H)-yl)piperidine-2,6-dione]	82.5			
14.2	95.1	2.2	CCOc1cc(N2CCC(N3CCN(CCCCc4cc(F)cc5c4oc(=O)n5C4CCC(=O)NC4=O)CC3)CC2)c(CC)cc1Nc1ncc(Br)c(Nc2ccc3nc(CC)ccc3c2P(C)(C)=O)n1 (stereo not shown) [Example 632, 3-(7-(4-(4-(1-(4-((5-bromo-4-((5-(dimethylphosphoryl)-2-ethylquinolin-6-yl)amino)pyrimidin-2-yl)amino)-5-ethoxy-2-ethylphenyl)piperidin-4-yl)piperazin-1-yl)butyl)-5-fluoro-2-oxobenzo[d]oxazol-3(2H)-yl)piperidine-2,6-dione]	81.77			
5.12	91.7	0.737	CCc1cc(Nc2ncc(Br)c(Nc3ccc4nc(NC5CC5)ccc4c3P(C)(C)=O)n2)c(OC)cc1N1CCC(N2CCN(CCc3ccc4c(c3)oc(=O)n4C3CCC(=O)NC3=O)CC2)CC1 (stereo not shown) [Example 633, 3-(6-(2-(4-(1-(4-((5-bromo-4-((2-(cyclopropylamino)-5-(dimethylphosphoryl)quinolin-6-yl)amino)pyrimidin-2-yl)amino)-2-ethyl-5-methoxyphenyl)piperidin-4-yl)piperazin-1-yl)ethyl)-2-oxobenzo[d]oxazol-3(2H)-yl)piperidine-2,6-dione]	70.09			
